Assay [1] deals with cellular ROCK activity (cofilin phosphorylation at Ser3) in A7r5 rat smooth muscle cells. Briefly: Cellular ROCK activity: cofilin (Ser3) phosphorylation, In-Cell Western assay. Format: cell-based. Particulars: 1 hour compound incubation, phospho-cofilin (Ser3), read-out: CELL_IC50. As for the experimental part: The potency of Rho-associated protein kinase (ROCK) inhibitors was quantified by measuring cofilin phosphorylation levels at Serine 3 (Ser3) as a measure of cellular ROCK activity by In-Cell Western assay. […] The assay plate was imaged and quantified on the Odyssey imager (LICOR Biosciences).
ROCK inhibitor compound plate preparation. […] Stock compounds and control are added directly to ECHO plate (Labcyte) by Janus.
A7r5 cell culture and plating. A7r5 cells were cultured according to standard cell culture protocols in A7r5 growth media (DMEM with Glutamax and 10% FBS). […] 45 μl of re-suspended A7r5 cells were plated at 3000 cells/well in a sterile, μclear, black, F-bottom, 384-well microplate (Greiner bio-one). Seeded cells allowed to settle in wells on the bench for 1 hour before incubation at 37° C., 5% CO2 overnight.
Assay reagent and antibody preparations. Wash buffer was prepared by addition of Tween-20 to Dulbecco's Phosphate Buffered Saline (DPBS) (1×) without calcium and magnesium to make 1% Tween-20 as final concentration. Blocking buffer was prepared by addition of TritonX-100 to SeaBlock buffer (ThermoFisher) to make 0.3% TritonX-100 as final concentration. […] Secondary antibody mix was prepared by diluting donkey anti-rabbit 800CW antibody (LICOR Biosciences) 1:1000 in SeaBlock buffer.
Assay procedure. Compound plate was diluted by addition of 19 μl/well compound dilution buffer (DMEM with Glutamax) using 125 μl 16-channel Matrix electronic pipette. 5 μl diluted compound was stamped from compound plate to assay plate containing A7r5 cells using Bravo (384-well head from Agilent) liquid handler and incubated at 37° C., 5% CO2 for 1 hour. Cells were fixed by addition of 5 μl 37% formaldehyde using 125 μl 16-channel Matrix electronic pipette and incubation for 20 min at room temperature. The assay plate was washed 5× with 60 μl/well wash buffer. […] Next, the assay plate was sealed, centrifuged at 1000 rpm for 5 seconds and incubated at 4° C. overnight on an orbital shaker at 300 rpm. […] The assay plate was centrifuged at 1000 rpm for 5 seconds and incubated on an orbital shaker at 300 rpm for 60 min at room temperature. Finally, assay plate was washed and wells left empty before measurement of 700 nm and 800 nm fluorescence intensities on Odyssey imager set at 4.0 mm focus offset.

Assay [2] addresses human catalytic domain ROCK II protein (amino acids 5-554) with a N-terminal GST tag (Homo sapiens, UniProt O75116). Put plainly: biochemical.

Molecules are shown by their SMILES. Counter-ions that a name gives are not always drawn. Like-named read-outs stand apart in the source and are kept apart here.

Sequence of human catalytic domain ROCK II protein (amino acids 5-554) with a N-terminal GST tag (O75116 5-554): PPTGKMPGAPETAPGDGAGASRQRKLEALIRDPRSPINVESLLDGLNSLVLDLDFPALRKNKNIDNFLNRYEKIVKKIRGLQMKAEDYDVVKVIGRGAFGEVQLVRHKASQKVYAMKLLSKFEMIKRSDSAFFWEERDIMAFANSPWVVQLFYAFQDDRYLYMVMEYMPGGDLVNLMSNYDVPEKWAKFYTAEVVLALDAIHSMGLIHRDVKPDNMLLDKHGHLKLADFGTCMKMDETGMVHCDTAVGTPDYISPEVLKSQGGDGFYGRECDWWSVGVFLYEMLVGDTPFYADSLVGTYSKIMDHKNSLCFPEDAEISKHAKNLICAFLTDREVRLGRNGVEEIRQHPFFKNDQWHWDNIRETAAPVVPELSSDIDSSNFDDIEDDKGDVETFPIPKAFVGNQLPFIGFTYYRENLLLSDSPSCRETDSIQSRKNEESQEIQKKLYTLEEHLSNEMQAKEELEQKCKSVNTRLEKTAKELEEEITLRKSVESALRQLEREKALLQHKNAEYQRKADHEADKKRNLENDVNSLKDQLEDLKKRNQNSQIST

Consider `COc1cccc([C@@H](C)NC(=O)N2[C@H](C)CN(c3ccncc3F)C[C@H]2C)c1` [Example 97, (2R,6R)-4-(3-Fluoropyridin-4-yl)-N—((R)-1-(3-methoxyphenyl)ethyl)-2,6-dimethylpiperazine-1-carboxamide Formate], for which the IC50 in assay [1] (Rattus norvegicus, A7R5, 1 h) was 114 nM; in assay [2], 12 nM.
As to `COc1ncccc1CNC(=O)N1CCN(c2ccncc2F)C[C@H]1C` [Example 56, (R)-4-(3-Fluoropyridin-4-yl)-N-((2-methoxypyridin-3-yl)methyl)-2-methylpiperazine-1-carboxamide], the IC50 worked out at 3050 nM in assay [1] (Rattus norvegicus, A7R5, 1 h) and 360 nM in assay [2].
For `C[C@@H]1CN(c2ccncc2F)CCN1C(=O)NCc1cccc2c1OC(F)(F)O2` [Example 74, (R)—N-((2,2-Difluorobenzo[d][1,3]dioxol-4-yl)methyl)-4-(3-fluoropyridin-4-yl)-2-methylpiperazine-1-carboxamide Hemiformate], in that order: 978 nM and 56.8 nM.
On to `COc1cccc(CNC(=O)N2CCN(c3ccncc3F)C[C@H]2C)c1` [Example 138], for which the IC50 in assay [1] (Rattus norvegicus, A7R5, 1 h) was 97.5 nM; in assay [2], 4.2 nM.
For `C[C@@H]1CN(c2ccncc2F)CCN1C(=O)N[C@H](C)c1cccc2c1OC(F)(F)O2` [Example 67, (R)—N—((R)-1-(2,2-Difluorobenzo[d][1,3]dioxol-4-yl)ethyl)-4-(3-fluoropyridin-4-yl)-2-methylpiperazine-1-carboxamide], in that order: 243 nM and 10.1 nM.
For `COc1cccc([C@@H](C)OC(=O)N2CCN(c3ccncc3F)CC2)c1` [Example 17, (R)-1-(3-Methoxyphenyl)ethyl 4-(3-fluoropyridin-4-yl)piperazine-1-carboxylate], in that order: 1090 nM and 32.3 nM.
On to `CC(NC(=O)N1CCN(c2ccncc2F)CC1)c1cccc(F)c1Cl` (single isomer, unassigned) [Example 23, N-(1-(2-Chloro-3-fluorophenyl)ethyl)-4-(3-fluoropyridin-4-yl)piperazine-1-carboxamide], for which the values for the IC50 in assay [1] and in assay [2] were 1440 nM and 88.8 nM, respectively.
On to `COc1cccc([C@@H](C)NC(=O)N2CCN(c3ccncc3F)[C@@H](C)C2)c1` [Example 90, (S)-4-(3-Fluoropyridin-4-yl)-N—((R)-1-(3-methoxyphenyl)ethyl)-3-methylpiperazine-1-carboxamide], for which the IC50 came to 62 nM in assay [1] (Rattus norvegicus, A7R5, 1 h) and 4.8 nM in assay [2].
In the case of `COc1cccc(CNC(=O)N2[C@H](C)CN(c3ccncc3F)C[C@H]2C)c1` [Example 95, (2R,6R)-4-(3-Fluoropyridin-4-yl)-N-(3-methoxybenzyl)-2,6-dimethylpiperazine-1-carboxamide], the IC50 stood at 1160 nM in assay [1] (Rattus norvegicus, A7R5, 1 h) and 38.3 nM in assay [2].
For `C[C@@H]1CN(c2ccncc2F)CCN1C(=O)NCc1cccc2nn(C)cc12` [Example 78, (R)-4-(3-Fluoropyridin-4-yl)-2-methyl-N-((2-methyl-2H-indazol-4-yl)methyl)piperazine-1-carboxamide], in that order: 34.3 nM and 4.2 nM.
Regarding `C[C@@H]1CN(c2ccncc2F)CCN1C(=O)N[C@H](C)c1cccc2nn(C)cc12` [Example 71, (R)-4-(3-Fluoropyridin-4-yl)-2-methyl-N—((R)-1-(2-methyl-2H-indazol-4-yl)ethyl)piperazine-1-carboxamide], the IC50 in assay [1] (Rattus norvegicus, A7R5, 1 h) is 1.6 nM; in assay [2] it was 3.1 nM.
The like results for `COc1cccc(CN2CC[C@@H]3CN(c4ccncc4F)CCN3C2=O)c1` [Example 89, (R)-2-(3-Fluoropyridin-4-yl)-7-(3-methoxybenzyl)octahydro-6H-pyrazino[1,2-c]pyrimidin-6-one] were, in that order, 1150 nM and 55.1 nM.
As to `COc1cccc([C@@H](C)NC(=O)N2CCN(c3ccncc3F)C(=O)C2)c1` [Example 100, (R)-4-(3-Fluoropyridin-4-yl)-N-(1-(3-methoxyphenyl)ethyl)-3-oxopiperazine-1-carboxamide], the IC50 in assay [1] (Rattus norvegicus) was not below 5000 nM; in assay [2], 2120 nM.
Consider `C[C@@H]1CN(c2ccncc2F)CCN1C(=O)N[C@H](C)c1cccc2c1CC(C)(C)O2` [Example 57, (R)—N—((R)-1-(2,2-Dimethyl-2,3-dihydrobenzofuran-4-yl)ethyl)-4-(3-fluoropyridin-4-yl)-2-methylpiperazine-1-carboxamide], for which the IC50 stood at 39.1 nM in assay [1] (Rattus norvegicus, A7R5, 1 h) and 5 nM in assay [2].
Regarding `COc1cccc([C@H](C)NC(=O)N2CCN(c3ccncc3F)CC2)c1Cl` [Example 125], the IC50 is 4310 nM in assay [1] (Rattus norvegicus, A7R5, 1 h) and 1160 nM in assay [2].
For `C[C@@H]1CN(c2ccnc(F)c2)CCN1C(=O)NCc1cccc2nn(C)cc12` [Example 11, (R)-4-(2-Fluoropyridin-4-yl)-2-methyl-N-((2-methyl-2H-indazol-4-yl)methyl)piperazine-1-carboxamide], in that order: 411 nM and 32.7 nM.
The like results for `COc1cccc([C@@H](C)NC(=O)N2C[C@H]3C[C@@H]2CN3c2ccncc2F)c1` [Example 153] were, in that order, 2430 nM and 238 nM.
In the case of `C[C@@H](NC(=O)N1CCN(c2ccncc2F)[C@@H](C)C1)c1ccccc1Cl` [Example 146], the IC50 in assay [1] (Rattus norvegicus, A7R5, 1 h) is 2090 nM; in assay [2], 110 nM.
The like results for `C[C@@H]1CN(c2ccncc2F)CCN1C(=O)N[C@H](C)c1cccn2nccc12` [Example 61, (R)-4-(3-Fluoropyridin-4-yl)-2-methyl-N—((R)-1-(pyrazolo[1,5-a]pyridin-4-yl)ethyl)piperazine-1-carboxamide] were, in that order, 13.8 nM and 2.4 nM.
Take `COc1cccc([C@@H](C)OC(=O)N2CCN(c3ccncc3F)C[C@H]2C)c1` [Example 46, (R)-1-(3-Methoxyphenyl)ethyl (R)-4-(3-fluoropyridin-4-yl)-2-methylpiperazine-1-carboxylate]: the IC50 is 295 nM in assay [1] (Rattus norvegicus, A7R5, 1 h) and 3.9 nM in assay [2].
The like results for `C[C@@H](NC(=O)N1CCN(c2ccncc2F)CC1)c1cccc2c1OC(F)(F)O2` [Example 36, (R)—N-(1-(2,2-Difluorobenzo[d][1,3]dioxol-4-yl)ethyl)-4-(3-fluoropyridin-4-yl)piperazine-1-carboxamide] were, in that order, 1440 nM and 88.1 nM.
`COc1ccc(F)c(CNC(=O)N2CCN(c3ccncc3F)C[C@H]2C)c1` [Example 55, (R)—N-(2-Fluoro-5-methoxybenzyl)-4-(3-fluoropyridin-4-yl)-2-methylpiperazine-1-carboxamide]: the IC50 is 602 nM in assay [1] (Rattus norvegicus, A7R5, 1 h) and 23.3 nM in assay [2].
The like results for `COc1cccc([C@@H](C)NC(=O)N2C[C@@H]3C[C@H]2CN3c2ccncc2F)c1` [Example 99] were, in that order, not below 5000 nM and 3120 nM.
Take `[2H]C([2H])([2H])Oc1cccc([C@@H](C)NC(=O)N2CCN(c3ccncc3F)CC2)c1` [Example 132]: the IC50 in assay [1] (Rattus norvegicus, A7R5, 1 h) was found to be 185 nM; in assay [2], 6.7 nM.
For `COc1ccc(F)c([C@@H](C)NC(=O)N2CCN(c3ccnc(F)c3)C[C@H]2C)c1` [Example 112], in that order: 1320 nM and 38.3 nM.
As for `C[C@@H](NC(=O)N1CCN(c2ccncc2F)CC1)c1cccc(OC(F)F)c1` [Example 127], the IC50 in assay [1] (Rattus norvegicus, A7R5, 1 h) is 428 nM; in assay [2] it was 24.2 nM.
For `C[C@@H]1CN(c2ccncc2F)CCN1C(=O)N[C@H](C)c1cccc(OC(F)F)c1` [Example 136], in that order: 53.1 nM and 3.8 nM.
The like results for `COc1cccc([C@@H](C)NC(=O)N2CCN(c3ccncc3F)CC2CO)c1` (stereo partly drawn) [Example 137] were, in that order, 79.8 nM and 4.8 nM.
The like results for `COc1cccc(CNC(=O)N2CCN(c3ccnc(F)c3)C[C@H]2C)c1` [Example 107] were, in that order, 1070 nM and 42.2 nM.
In the case of `Cc1cnc2cccc([C@@H](C)NC(=O)N3CCN(c4ccnc(F)c4)C[C@H]3C)n12` [Example 9, (R)-4-(2-Fluoropyridin-4-yl)-2-methyl-N—((R)-1-(3-methylimidazo[1,2-a]pyridin-5-yl)ethyl)piperazine-1-carboxamide], the IC50 in assay [1] (Rattus norvegicus, A7R5, 1 h) amounted to 240 nM; in assay [2], 12.3 nM.

The record behind these values is patent US12428413B2 (CHDI Foundation, Inc., priority 2019, dated 2025).
